Results reported in ChEMBL document CHEMBL5620397, “Design, synthesis and biological evaluation of 3-substituted-2-thioxothiazolidin-4-one (rhodanine) derivatives as antitubercular agents against Mycobacterium tuberculosis protein tyrosine phosphatase B” (Eur J Med Chem, 2023).
Values after ≈ are worked out from the molar mass of the structure shown.

Columns and labels:
[1] = target: Triple specificity protein phosphatase PtpB (Mycobacterium tuberculosis (strain ATCC 25618 / H37Rv)) (UniProt I6WXK4); test: (§1) Inhibition of Mycobacterium tuberculosis H37Rv ptpB expressed in Escherichia coli BL21(DE3) at 50 uM using pNPP as substrate preincubated for 10 mins followed by substrate addition and measured for 5 mins by spectrophotometer analysis relative to control; conditions: time 15.0 min
[2] = Cytotoxicity against mouse J774.G8 cells after 48 hrs by MTT assay; type: functional, cell-based; conditions: J774.G8, 48 h
[3] = system: Mycobacterium tuberculosis; test: Antituberculosis activity against Mycobacterium tuberculosis H37Rv in mouse J774A.1 cells assessed as reduction in intracellular bacterial burden at 0.5 ug/ml measured after 21 days by agar plate method; type: functional, J774.A1; set-up: scale not given: the % may be the effect or the level left; conditions: dose 0.5 µg/ml; time 21 day
Vero = test: cells; conditions: Chlorocebus sabaeus, 48 h
Description: Cytotoxicity against african green monkey Vero cells after 48 hrs by MTT assay

[4] = system: Mycobacterium tuberculosis; test: Antituberculosis activity against Mycobacterium tuberculosis H37Rv by microplate alamar blue assay; type: functional
[5] = target: T1, Phosphotyrosine protein phosphatase (Mycobacterium tuberculosis, UniProt A0A045ISB3); test: Inhibition of Mycobacterium tuberculosis ptpB
T1 sequence (A0A045ISB3 whole entry): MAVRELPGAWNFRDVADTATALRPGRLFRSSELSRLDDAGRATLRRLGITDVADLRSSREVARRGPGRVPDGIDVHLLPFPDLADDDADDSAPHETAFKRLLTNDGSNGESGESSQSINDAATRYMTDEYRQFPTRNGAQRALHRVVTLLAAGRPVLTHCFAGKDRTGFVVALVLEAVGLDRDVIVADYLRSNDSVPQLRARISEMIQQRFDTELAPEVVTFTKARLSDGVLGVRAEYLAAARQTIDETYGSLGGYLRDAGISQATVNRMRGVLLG

[6] = Metabolic stability in mouse liver microsomes assessed as substrate remaining preincubated for 5 mins followed by NADPH addition and measured upto 30 mins by LC-MS/MS assay; type: ADME, Microsome; conditions: time < 35 min, read-out: Stability
[7] = system: PTP1B versus M. tuberculosis ptpB; test: Selectivity index, ratio of IC50 for human PTP1B to Mycobacterium tuberculosis H37Rv ptpB; type: toxicity; conditions: read-out: Ratio IC50
[8] = target: T2, Triple specificity protein phosphatase PtpB (Mycobacterium tuberculosis (strain ATCC 25618 / H37Rv), UniProt I6WXK4); test: Inhibition of Mycobacterium tuberculosis H37Rv ptpB expressed in Escherichia coli BL21(DE3) using pNPP as substrate preincubated for 10 mins followed by substrate addition and measured for 5 mins by spectrophotometer analysis
T2 sequence (I6WXK4 whole entry): T1 sequence (A0A045ISB3 whole entry)

[9] = system: Mycobacterium tuberculosis; test: Antituberculosis activity against Mycobacterium tuberculosis H37Rv in mouse J774A.1 cells assessed as reduction in bacterial burden at 10 ug/ml measured after 21 days in presence of RFP by agar plate method; type: functional, J774.A1; set-up: scale not given: the % may be the effect or the level left; conditions: dose 10 µg/ml; time 21 day
[10] = Metabolic stability in mouse liver microsomes assessed as intrinsic clearance per mg protein preincubated for 5 mins followed by NADPH addition and measured upto 30 mins by LC-MS/MS assay; type: ADME, Microsome; conditions: time < 35 min, read-out: CLH
[11] = Metabolic stability in mouse liver microsomes in absence of NADPH by LC-MS/MS assay; type: ADME, Microsome
[12] = target: T3, Triple specificity protein phosphatase PtpB (Mycobacterium tuberculosis (strain ATCC 25618 / H37Rv)) (UniProt I6WXK4); test: as §1; conditions: time 15.0 min; remark: listed apart in the source
T3 sequence (whole entry): T1 sequence (A0A045ISB3 whole entry)

[13] = system: Mycobacterium tuberculosis; test: Antituberculosis activity against Mycobacterium tuberculosis H37Rv in mouse J774A.1 cells assessed as reduction in intracellular bacterial burden at 10 ug/ml measured after 21 days by agar plate method; type: functional, J774.A1; set-up: scale not given: the % may be the effect or the level left; conditions: dose 10 µg/ml; time 21 day
[14] = Metabolic stability in human liver microsomes assessed as half life preincubated for 5 mins followed by NADPH addition and measured upto 30 mins by LC-MS/MS assay; type: ADME, Microsome; conditions: time < 35 min
[15] = target: T4, Tyrosine-protein phosphatase non-receptor type 1 (Homo sapiens, UniProt P18031); test: Inhibition of recombinant human PTP1B using pNPP as substrate preincubated for 5 mins followed by substrate addition and measured for 10 mins; type: toxicity
T4 sequence (P18031 whole entry): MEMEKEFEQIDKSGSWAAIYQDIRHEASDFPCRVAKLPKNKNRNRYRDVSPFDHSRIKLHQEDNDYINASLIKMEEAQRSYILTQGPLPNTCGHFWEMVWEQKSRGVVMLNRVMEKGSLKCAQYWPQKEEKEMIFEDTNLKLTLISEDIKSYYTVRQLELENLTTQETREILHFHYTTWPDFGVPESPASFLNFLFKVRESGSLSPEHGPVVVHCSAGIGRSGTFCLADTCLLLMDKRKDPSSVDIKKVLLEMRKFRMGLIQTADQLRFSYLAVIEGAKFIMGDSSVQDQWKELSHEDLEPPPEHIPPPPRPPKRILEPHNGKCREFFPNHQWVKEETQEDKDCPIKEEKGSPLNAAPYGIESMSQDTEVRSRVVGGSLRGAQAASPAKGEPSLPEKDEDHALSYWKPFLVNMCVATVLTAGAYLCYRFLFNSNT

[16] = Permeability in human Caco-2 cells at 3 uM incubated for 90 mins by LC-MS/MS analysis; type: ADME, cell-based; conditions: read-out: permeability
[17] = Metabolic stability in human liver microsomes in absence of NADPH by LC-MS/MS assay; type: ADME, Microsome
[18] = target: T5, Low molecular weight protein-tyrosine phosphatase A (Mycobacterium tuberculosis, UniProt P9WIA1); test: Inhibition of Mycobacterium tuberculosis H37Rv ptpA expressed in Escherichia coli BL21(DE3) using pNPP as substrate preincubated for 10 mins followed by substrate addition and measured for 5 mins by spectrophotometer analysis
T5 sequence (P9WIA1 whole entry): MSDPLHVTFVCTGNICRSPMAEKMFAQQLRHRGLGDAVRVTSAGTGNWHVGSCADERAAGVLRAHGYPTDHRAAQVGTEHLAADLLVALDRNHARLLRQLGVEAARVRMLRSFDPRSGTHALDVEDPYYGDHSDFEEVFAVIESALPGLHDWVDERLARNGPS

[19] = Metabolic stability in human liver microsomes assessed as intrinsic clearance per mg protein preincubated for 5 mins followed by NADPH addition and measured upto 30 mins by LC-MS/MS assay; type: ADME, Microsome; conditions: time < 35 min, read-out: CLH
[20] = Metabolic stability in human liver microsomes assessed as substrate remaining preincubated for 5 mins followed by NADPH addition and measured upto 30 mins by LC-MS/MS assay; type: ADME, Microsome; conditions: time < 35 min, read-out: Stability
[21] = system: Mycobacterium tuberculosis; test: Antituberculosis activity against Mycobacterium tuberculosis H37Rv in mouse J774A.1 cells assessed as reduction in intracellular bacterial burden measured after 21 days by agar plate method; type: functional, organism-based; conditions: J774.A1, dose 1-10 µg/ml, time 21.0 day
[22] = Metabolic stability in mouse liver microsomes assessed as half life preincubated for 5 mins followed by NADPH addition and measured upto 30 mins by LC-MS/MS assay; type: ADME, Microsome; conditions: time < 35 min
[23] = target: T6, Low molecular weight protein-tyrosine phosphatase A (Mycobacterium tuberculosis) (UniProt P9WIA1); test: Inhibition of Mycobacterium tuberculosis H37Rv ptpA expressed in Escherichia coli BL21(DE3) at 10 uM using pNPP as substrate preincubated for 10 mins followed by substrate addition and measured for 5 mins by spectrophotometer analysis relative to control; conditions: time 15.0 min
T6 sequence (whole entry): T5 sequence (P9WIA1 whole entry)

[24] = target: T2, Triple specificity protein phosphatase PtpB; test: Inhibition of Mycobacterium tuberculosis H37Rv ptpB using pNPP as substrate preincubated for 10 mins followed by substrate addition and measured for 5 mins by spectrophotometer analysis

## SODIUM ORTHOVANAD
[1]
  inhibition: 97.4%

## CO[C@H]1/C=C/O[C@@]2(C)Oc3c(C)c(O)c4c(O)c(c(/C=N/N5CCN(C)CC5)c(O)c4c3C2=O)NC(=O)/C(C)=C\C=C\[C@H](C)[C@H](O)[C@@H](C)[C@@H](O)[C@@H](C)[C@H](OC(C)=O)[C@@H]1C [RIFAMPIN]
[2]
  IC50: > 64 µg/mL
[3]
  Activity: >85%
Vero
  IC50: > 64 µg/mL
[4]
  MIC: 0.023 µg/mL (≈ 0.0279 µM)

## Cc1onc(C(=O)O)c1-c1cccc(-c2cc(Cl)c(O)c(Cl)c2)c1
[5]
  IC50: 2980 nM

## CCCC[C@@H](C(=O)O)N1C(=O)/C(=C/c2ccc(-c3cccc(C(F)(F)F)c3)cc2)SC1=S
[6]
  remaining at 0.5 h: 101%
[7]
  selectivity ratio: 7
[8]
  IC50: 640 nM
[2]
  IC50: 50.3 µg/mL (≈ 105 µM)
[9]
  Activity: >95%
[10]
  microsomal CLint: < 22.1 µL/min/mg
[11]
  Stability: Stable
[12]
  inhibition: 104%
[13]
  Activity: >85%
[14]
  half-life: > 1.55 h
[15]
  IC50: 4140 nM
Vero
  IC50: 32.2 µg/mL (≈ 67.1 µM)
[16]
  Papp at 1.5 h, 3 µM: 16.9 ×10⁻⁶ cm/s
[4]
  MIC: 31.1 µg/mL (≈ 64.9 µM)
[17]
  Stability: Stable
[18]
  IC50: 4060 nM
[19]
  microsomal CLint: < 6.1 µL/min/mg
[20]
  remaining at 0.5 h: 95.9%
[21]
  Activity: Dose-Dependent Effect
[22]
  half-life: > 1.55 h

## CCCC[C@@H](C(=O)O)N1C(=O)/C(=C/c2ccc(-c3ccc(F)c(C(F)(F)F)c3)cc2)SC1=S
[6]
  remaining at 0.5 h: 101%
[7]
  selectivity ratio: 20
[23]
  inhibition: 20.2%
[8]
  IC50: 480 nM
[2]
  IC50: 47.7 µg/mL (≈ 95.9 µM)
[10]
  microsomal CLint: < 22.1 µL/min/mg
[11]
  Stability: Stable
[12]
  inhibition: 106%
[14]
  half-life: > 1.55 h
[15]
  IC50: 11300 nM
Vero
  IC50: 28.2 µg/mL (≈ 56.7 µM)
[4]
  MIC: 31.7 µg/mL (≈ 63.7 µM)
[17]
  Stability: Stable
[19]
  microsomal CLint: < 6.1 µL/min/mg
[20]
  remaining at 0.5 h: 96.9%
[21]
  Activity: Dose-Dependent Effect
[22]
  half-life: > 1.55 h

## O=C(O)[C@H](C1CCCCC1)N1C(=O)/C(=C/c2ccc(-c3cccc(C(F)(F)F)c3)cc2)SC1=S
[6]
  remaining at 0.5 h: 80%
[7]
  selectivity ratio: 5
[23]
  inhibition: 16.6%
[8]
  IC50: 350 nM
[2]
  IC50: 38 µg/mL (≈ 75.2 µM)
[10]
  microsomal CLint: < 22.1 µL/min/mg
[11]
  Stability: Stable
[12]
  inhibition: 96.5%
[14]
  half-life: > 1.55 h
[15]
  IC50: 1750 nM
Vero
  IC50: 30.6 µg/mL (≈ 60.5 µM)
[4]
  MIC: 31.4 µg/mL (≈ 62.1 µM)
[17]
  Stability: Stable
[19]
  microsomal CLint: < 6.1 µL/min/mg
[20]
  remaining at 0.5 h: 101%
[21]
  Activity: Dose-Dependent Effect
[22]
  half-life: > 1.55 h

## CCCC[C@@H](C(=O)O)N1C(=O)/C(=C/c2ccc(-c3cccc(Cl)c3)cc2)SC1=S
[7]
  selectivity ratio: 5
[8]
  IC50: 380 nM
[12]
  inhibition: 102%
[15]
  IC50: 1870 nM

## O=C1OC(c2ccccc2C(F)(F)F)C(c2ccc3ccccc3n2)=C1O (centres undefined)
[5]
  IC50: 31100 nM

## O=C(O)[C@H](C1CCCCC1)N1C(=O)/C(=C/c2ccc(-c3ccc(F)c(C(F)(F)F)c3)cc2)SC1=S
[6]
  remaining at 0.5 h: 101%
[23]
  inhibition: 27.1%
[8]
  IC50: 490 nM
[2]
  IC50: > 64 µg/mL
[10]
  microsomal CLint: < 22.1 µL/min/mg
[11]
  Stability: Stable
[12]
  inhibition: 101%
[14]
  half-life: > 1.55 h
[15]
  IC50: 5370 nM
Vero
  IC50: 30.2 µg/mL (≈ 57.7 µM)
[4]
  MIC: 30.5 µg/mL (≈ 58.3 µM)
[17]
  Stability: Stable
[19]
  microsomal CLint: < 6.1 µL/min/mg
[20]
  remaining at 0.5 h: 101%
[21]
  Activity: Dose-Dependent Effect
[22]
  half-life: > 1.55 h

## CCOC(=O)C1=C(C)Oc2nc(C)n(Cc3cn([C@@H]4O[C@H](COC(C)=O)[C@@H](OC(C)=O)[C@H](OC(C)=O)[C@H]4OC(C)=O)nn3)c(=O)c2C1c1cc(OC)c(OC)c(OC)c1 (some centres undefined)
[5]
  IC50: 1560 nM

## O=C1NC(=S)NC(=O)C1Cc1cc(Br)ccc1OCc1ccc(Cl)cc1
[4]
  MIC: > 32 µg/mL
[24]
  IC50: 22400 nM
